Reference: US8236935B2, “Gem-difluorinated C-glycoside compounds derived from podophyllotoxin, their preparation and their applications” (Institut National des Sciences Appliquees de Rouen (INSA), priority 2006, dated 2012)
Values joined by “and” are separate entries in the source; they are usually repeats but may differ in a detail not shown here. Identical values can stand only once.

Columns and labels:
Assay type in all cases: cell-based
KB cells [1] = experiment: cytotoxicity test, inhibition of cellular growth, KB cells; settings: 10^−5M; for inhibition percentage of cellular growth / inhibition at 10 µM: triplicate; for inhibition at 10 µM: Homo sapiens, read-out: inhibition percentage of cellular growth
Experimental: (§1) The first cytotoxicity tests were conducted on different cell lines such as KB, PC3, MCF7 and MCF7R, SF268, HL60, HT29, A549 cells at concentrations of 10^−5M in triplicate. Podophyllotoxin 1 and etoposide 2 were also tested under the same conditions as standards.
(§2) The results are expressed as an inhibition percentage of cellular growth.

PC3 cells = experiment: cytotoxicity test, inhibition of cellular growth, PC3 cells; settings: triplicate; for inhibition percentage of cellular growth: 10^−5M
Experimental: as §1, §2

MCF7 cells = experiment: cytotoxicity test, inhibition of cellular growth, MCF7 cells; settings: 10^−5M, triplicate
Experimental: as §1, §2

MCF7R cells = experiment: cytotoxicity test, inhibition of cellular growth, MCF7R cells; settings: 10^−5M, triplicate
Experimental: as §1, §2

SF268 cells = experiment: cytotoxicity test, inhibition of cellular growth, SF268 cells; settings: triplicate; for inhibition percentage of cellular growth: 10^−5M
Experimental: as §1, §2

HL60 cells = experiment: cytotoxicity test, inhibition of cellular growth, HL60 cells; settings: triplicate; for inhibition percentage of cellular growth: 10^−5M
Experimental: as §1, §2

HT29 cells = experiment: cytotoxicity test, inhibition of cellular growth, HT29 cells; settings: triplicate; for inhibition percentage of cellular growth: 10^−5M
Experimental: as §1, §2

A549 cells = experiment: cytotoxicity test, inhibition of cellular growth, A549 cells; settings: 10^−5M, triplicate
Experimental: as §1, §2

KB cells [2] = experiment: IC50 of cytotoxicity on KB cells; settings: in duplicate (two values per cell, separated by /)
Source text: The IC50 values are expressed in μM on KB cells in duplicate and were obtained for the […] leading compounds, i.e. 27a, 32a, 44a, 37a and 46a in parallel with podophyllotoxin and etoposide.

[3] = tested on: KB, PC3, MCF7 and MCF7R, SF268, HL60, HT29, A549 cells; experiment: cytotoxicity tests on the panel of cell lines, overall comparison with standards; settings: 10^−5M
Experimental: as §1, §2

[4] = Homo sapiens, read-out: inhibition percentage of cellular growth

SMILES | inhibition percentage of cellular growth (KB cells [1]) [%] | inhibition percentage of cellular growth (PC3 cells) [%] | inhibition percentage of cellular growth (MCF7 cells) [%] | inhibition percentage of cellular growth (MCF7R cells) [%] | inhibition percentage of cellular growth (SF268 cells) [%] | inhibition percentage of cellular growth (HL60 cells) [%] | inhibition percentage of cellular growth (HT29 cells) [%] | inhibition percentage of cellular growth (A549 cells) [%] | cytotoxicity compared with etoposide and podophyllotoxin (in words) (KB cells [1]) | inhibition at 10 µM (KB cells [1]) [%] | IC50 (KB cells [2]) | also measured
COc1cc(C2c3cc4c(cc3C(NC(=O)C(F)(F)C3(O)OC5COC(C)OC5C(O)C3O)C3COC(=O)C23)OCO4)cc(OC)c1OC (stereo not shown) [29a] | 66 | 8 | 40 | 44 | 11 | 17 | 17 | 6 | – | – | – | –
COc1cc([C@@H]2c3cc4c(cc3[C@@H](NC(=O)C(F)(F)[C@]3(O)O[C@H](CO)[C@H](O)[C@H](O)[C@H]3O)[C@H]3COC(=O)[C@H]23)OCO4)cc(OC)c1O [compound 26b] | 12 | 8 | 20 | 16 | 7 | 19 | 13 | 7 | – | – | – | –
COc1cc([C@@H]2c3cc4c(cc3[C@@H](O[C@@H]3O[C@@H]5CO[C@@H](C)O[C@H]5[C@H](O)[C@H]3O)[C@H]3COC(=O)[C@H]23)OCO4)cc(OC)c1O [Etoposide, etoposide, reference compound] | 84 | 47 | 57 | 22 | 82 | 75 | 79 | 65 | – | – | – | –
COc1cc([C@@H]2c3cc4c(cc3[C@@H](NC(=O)C(F)(F)[C@]3(O)O[C@H](CO)[C@@H](O)[C@H](O)[C@H]3O)[C@H]3COC(=O)[C@H]23)OCO4)cc(OC)c1O [compound 26a] | 43 | 10 | 37 | 35 | 7 | 17 | 10 | 23 | – | – | – | –
COc1cc([C@@H]2c3cc4c(cc3[C@@H](NC(=O)C(F)(F)[C@@H]3O[C@H](CO)[C@@H](O)[C@H](O)[C@H]3O)C3COC(=O)[C@@H]32)OCO4)cc(OC)c1OC (stereo partly shown) [compound 44a] | – | – | – | – | – | – | – | – | cytotoxicity close to that of etoposide and podophyllotoxin | 90 | 0.341 µM | IC50 (KB cells [2]; Homo sapiens, KB): 0.323 µM
COc1cc(C2c3cc4c(cc3C(NCC(F)(F)C3(O)OC(CO)C(O)C(O)C3O)C3COC(=O)C23)OCO4)cc(OC)c1OC (stereo not shown) [compound 32a] | 94 | – | – | – | – | – | – | – | cytotoxicity close to that of etoposide and podophyllotoxin | – | – | –
COc1cc(C2c3cc4c(cc3C(NC(=O)C(F)(F)C3(O)OC5COC(C)OC5C(O)C3O)C3COC(=O)C23)OCO4)cc(OC)c1OC (stereo not shown) [29b] | 0 | 3 | 7 | 7 | 6 | 0 | 6 | 1 | – | – | – | –
COc1cc([C@@H]2c3cc4c(cc3[C@H](O)[C@H]3COC(=O)[C@H]23)OCO4)cc(OC)c1OC [Podophyllotoxin 1, Podophyllotoxin] | – | – | – | – | – | – | – | – | – | 90 | 0.022 µM | inhibition at 10 µM (PC3 cells; Homo sapiens, PC-3, 10^−5M, read-out: inhibition percentage of cellular growth): 65%; inhibition at 10 µM (MCF7 cells; [4]): 55%; inhibition at 10 µM (MCF7R cells; [4]): 55%; inhibition at 10 µM (SF268 cells; Homo sapiens, SF-268, 10^−5M, read-out: inhibition percentage of cellular growth): 74%; inhibition at 10 µM (HL60 cells; Homo sapiens, HL-60, 10^−5M, read-out: inhibition percentage of cellular growth): 74%; inhibition at 10 µM (HT29 cells; Homo sapiens, HT-29, 10^−5M, read-out: inhibition percentage of cellular growth): 84%; inhibition at 10 µM (A549 cells; [4]): 83%; IC50 (KB cells [2]; Homo sapiens, KB): 0.015 µM
COc1cc(C2c3cc4c(cc3C(NC(=O)C(F)(F)C3(O)OC(CO)C(O)C(O)C3O)C3COC(=O)C23)OCO4)cc(OC)c1OC (stereo not shown) [compound 27b] | 12 | 8 | 20 | 10 | 7 | 19 | 8 | 6 | – | – | – | –
COc1cc([C@@H]2c3cc4c(cc3[C@@H](NC(=O)C(F)(F)C3(Cl)O[C@H](CO)[C@@H](O)[C@H](O)[C@H]3O)C3COC(=O)[C@@H]32)OCO4)cc(OC)c1OC (stereo partly shown) [compound 37a] | – | – | – | – | – | – | – | – | cytotoxicity close to that of etoposide and podophyllotoxin | 91 | 0.306 µM | IC50 (KB cells [2]; Homo sapiens, KB): 0.273 µM
COc1cc([C@@H]2c3cc4c(cc3[C@@H](N(C)C(=O)C(F)(F)[C@]3(O)O[C@H](COCc5ccccc5)[C@@H](OCc5ccccc5)[C@H](OCc5ccccc5)[C@H]3OCc3ccccc3)C3COC(=O)[C@@H]32)OCO4)cc(OC)c1OC (stereo partly shown) [compound 31a] | – | – | – | – | – | – | – | – | – | 22 | – | –
COc1cc(C2c3cc4c(cc3C(NC(=O)C(F)(F)C3(O)OC(CO)C(O)C(O)C3O)C3COC(=O)C23)OCO4)cc(OC)c1OC (stereo not shown) [compound 27a] | 91 | 63 | 53 | 70 | 65 | 79 | 87 | 78 | – | – | 3.45 µM and 2.55 µM | activity compared with etoposide and podophyllotoxin (in words) [3]: activity comparable with that of etoposide and of podophyllotoxin, and even better on certain cell lines
COc1cc(C2c3cc4c(cc3C(NCC(F)(F)C3(O)OC5COC(C)OC5C(O)C3O)C3COC(=O)C23)OCO4)cc(OC)c1OC (stereo not shown) [compound 46a] | 86 | – | – | – | – | – | – | – | cytotoxicity close to that of etoposide and podophyllotoxin | – | 4.71 µM and 6.03 µM | –
